According to ChEMBL document CHEMBL4342442, “Usnic Acid Enaminone-Coupled 1,2,3-Triazoles as Antibacterial and Antitubercular Agents” (J Nat Prod, 2020):
Active and inactive are the calls of the source. The calls are words filed in the database; no cut-off is given here.

Assays:
[1] = system: Mycobacterium tuberculosis; assay: Antitubercular activity against Mycobacterium tuberculosis H37Rv assessed as reduction in microbial growth after 7 days by alamar blue assay; assay type: functional; conditions: 168 h
Staphylococcus aureus [2] = assay: Antibacterial activity against Staphylococcus aureus MTCC 96 assessed as reduction in microbial growth after 24 hrs by CLSI based microdilution method; assay type: functional; conditions: MTCC 96, 24 h
Staphylococcus aureus [3] = assay: Antibacterial activity against Staphylococcus aureus MTCC 96 assessed as diameter of zone of inhibition at 200 ug/ml after 24 hrs by agar well diffusion method; assay type: functional
[4] = Cytotoxicity against HEK cells assessed as reduction in cell viability after 24 hrs by MTT assay; assay type: cell-based, Homo sapiens; conditions: Homo sapiens, HEK293, 24 h; read-out: IC50
Bacillus subtilis [5] = assay: Antibacterial activity against Bacillus subtilis MTCC 441 assessed as diameter of zone of inhibition at 200 ug/ml after 24 hrs by agar well diffusion method; assay type: functional
[6] = system: Staphylococcus epidermidis; assay: Antibacterial activity against Staphylococcus epidermidis assessed as reduction in microbial growth after 24 hrs by CLSI based microdilution method; assay type: functional
Escherichia coli [7] = assay: Antibacterial activity against Escherichia coli MTCC 443 assessed as reduction in microbial growth after 24 hrs by CLSI based microdilution method; assay type: functional; conditions: MTCC 443, 24 h
CHO-K1 = assay: Cytotoxicity against CHOK1 cells assessed as reduction in cell viability after 24 hrs by MTT assay; assay type: cell-based; conditions: Cricetulus griseus, CHO-K1, 24 h
Klebsiella pneumoniae [8] = assay: Antibacterial activity against Klebsiella pneumoniae MTCC 618 assessed as reduction in microbial growth after 24 hrs by CLSI based microdilution method; assay type: functional; conditions: MTCC 618, 24 h
Klebsiella pneumoniae [9] = assay: Antibacterial activity against Klebsiella pneumoniae MTCC 618 assessed as diameter of zone of inhibition at 200 ug/ml after 24 hrs by agar well diffusion method; assay type: functional
Escherichia coli [10] = assay: Antibacterial activity against Escherichia coli MTCC 443 assessed as diameter of zone of inhibition at 200 ug/ml after 24 hrs by agar well diffusion method; assay type: functional
Bacillus subtilis [11] = assay: Antibacterial activity against Bacillus subtilis MTCC 441 assessed as reduction in microbial growth after 24 hrs by CLSI based microdilution method; assay type: functional; conditions: MTCC 441, 24 h
[12] = system: Staphylococcus epidermidis; assay: Antibacterial activity against Staphylococcus epidermidis assessed as diameter of zone of inhibition at 200 ug/ml after 24 hrs by agar well diffusion method; assay type: functional
Pseudomonas aeruginosa [13] = assay: Antibacterial activity against Pseudomonas aeruginosa MTCC 741 assessed as diameter of zone of inhibition at 200 ug/ml after 24 hrs by agar well diffusion method; assay type: functional
Pseudomonas aeruginosa [14] = assay: Antibacterial activity against Pseudomonas aeruginosa MTCC 741 assessed as reduction in microbial growth after 24 hrs by CLSI based microdilution method; assay type: functional; conditions: MTCC 741, 24 h
[15] = system: Mycobacterium tuberculosis; assay: Antitubercular activity against Mycobacterium tuberculosis H37Rv assessed as log reduction in bacterial population at 10 ug/ml under starvation condition after 7 days by MPN assay; assay type: functional

In the case of `CC(=O)c1c(O)c(C)c(O)c2c1OC1=CC(=O)/C(=C(/C)NCc3cn(CC(=O)c4cccc(C(F)(F)F)c4)nn3)C(=O)C12C` (configuration not stated), the MIC [1] is reported as 41 µM, the MIC (Staphylococcus aureus [2]) is reported as > 350 µM and the “diameter of the inhibition zone (DIZ)” value (Staphylococcus aureus [3]) is reported as “inactive”. For the same compound, the IC50 [4] was 91.3 µM, the zone of inhibition at 200 µg/mL (Bacillus subtilis [5]; MTCC 441, 24 h, read-out: DIZ) was 15 mm and the MIC [6] was > 350 µM. The MIC (Escherichia coli [7]) was > 350 µM, the IC50 (CHO-K1) was 25.6 µM and the MIC (Klebsiella pneumoniae [8]) was > 350 µM. The “diameter of the inhibition zone (DIZ)” value (Klebsiella pneumoniae [9]) was “inactive”, the “diameter of the inhibition zone (DIZ)” value (Escherichia coli [10]) was “inactive” and the MIC (Bacillus subtilis [11]) was 40.9 µM. The “diameter of the inhibition zone (DIZ)” value [12] was “inactive”, the “diameter of the inhibition zone (DIZ)” value (Pseudomonas aeruginosa [13]) was “inactive” and the MIC (Pseudomonas aeruginosa [14]) was > 350 µM.
`CC(=O)c1c(O)c(C)c(O)c2c1OC1=CC(=O)/C(=C(/C)NCc3cn(CC(=O)c4ccc([N+](=O)[O-])cc4)nn3)C(=O)C12C` (configuration not stated) showed an MIC [1] of 42.6 µM.
Compound `COc1ccc(C(=O)Cn2cc(CN/C(C)=C3\C(=O)C=C4Oc5c(C(C)=O)c(O)c(C)c(O)c5C4(C)C3=O)nn2)cc1` (configuration not stated) has an MIC [1] of 43.7 µM.
Compound `CC(=O)c1c(O)c(C)c(O)c2c1OC1=CC(=O)/C(=C(/C)NCc3cn(CC(=O)N4CCN(C(=O)OC(C)(C)C)CC4)nn3)C(=O)C12C` (configuration not stated) has an MIC [1] of 38.4 µM.
For `O=C(O)c1cn(C2CC2)c2cc(N3CCNCC3)c(F)cc2c1=O` [CIPROFLOXACIN], the FC [15] was 1.8.
With `CC(=O)c1c(O)c(C)c(O)c2c1OC1=CC(=O)/C(=C(/C)NCc3cn(CC(=O)c4ccc(F)cc4)nn3)C(=O)C12C` (configuration not stated) the MIC [1] was 11.2 µM, the MIC (Staphylococcus aureus [2]) was > 350 µM and the MIC [6] was > 350 µM. For the same compound, the MIC (Escherichia coli [7]) was > 350 µM, the MIC (Klebsiella pneumoniae [8]) was > 350 µM and the MIC (Bacillus subtilis [11]) was 347 µM. The MIC (Pseudomonas aeruginosa [14]) was > 350 µM.
`CC(=O)c1c(O)c(C)c(O)c2c1OC1=CC(=O)/C(=C(/C)NCc3cn(CC(=O)c4ccc(OC(F)(F)F)cc4)nn3)C(=O)C12C` (configuration not stated) showed an MIC [1] of 39.9 µM.
`CC(=O)c1c(O)c(C)c(O)c2c1OC1=CC(=O)/C(=C(/C)NCc3cn(CC(=O)c4ccc(Cl)cc4)nn3)C(=O)C12C` (configuration not stated) gave an MIC [1] of 10.8 µM.
In the case of `CC(=O)c1c(O)c(C)c(O)c2c1OC1=CC(=O)/C(=C(/C)NCc3cn(CC(=O)N4CCN(c5ccccn5)CC4)nn3)C(=O)C12C` (configuration not stated), the MIC [1] is reported as 39.8 µM.
Compound `CC(=O)c1c(O)c(C)c(O)c2c1OC1=CC(=O)/C(=C(/C)NCc3cn(CC(=O)c4c5ccccc5cc5ccccc45)nn3)C(=O)C12C` (configuration not stated) has an MIC [1] of 9.7 µM.
For `CC(=O)c1c(O)c(C)c(O)c2c1OC1=CC(=O)/C(=C(/C)NCc3cn(CC(=O)N4CCSCC4)nn3)C(=O)C12C` (configuration not stated), the MIC [1] was 44 µM, the MIC (Staphylococcus aureus [2]) was > 350 µM and the “diameter of the inhibition zone (DIZ)” value (Staphylococcus aureus [3]) was “inactive”. The “diameter of the inhibition zone (DIZ)” value (Bacillus subtilis [5]) was “inactive”, the MIC [6] was > 350 µM and the MIC (Escherichia coli [7]) was > 350 µM. The MIC (Klebsiella pneumoniae [8]) was > 350 µM, the “diameter of the inhibition zone (DIZ)” value (Klebsiella pneumoniae [9]) was “inactive” and the “diameter of the inhibition zone (DIZ)” value (Escherichia coli [10]) was “inactive”. For the same compound, the MIC (Bacillus subtilis [11]) was > 350 µM, the “diameter of the inhibition zone (DIZ)” value [12] was “inactive” and the “diameter of the inhibition zone (DIZ)” value (Pseudomonas aeruginosa [13]) was “inactive”. The MIC (Pseudomonas aeruginosa [14]) was > 350 µM.
`CC(=O)c1c(O)c(C)c(O)c2c1OC1=CC(=O)/C(=C(/C)NCc3cn(CC(=O)c4cccs4)nn3)C(=O)C12C` (configuration not stated) gave an MIC [1] of 45.6 µM.
For `COc1c(N2C[C@@H]3CCCN[C@@H]3C2)c(F)cc2c(=O)c(C(=O)O)cn(C3CC3)c12` [MOXIFLOXACIN], the FC [15] was 2.
In the case of `CC(=O)c1c(O)c(C)c(O)c2c1OC1=CC(=O)/C(=C(/C)NCc3cn(CC(=O)N4CCN(c5ccccc5F)CC4)nn3)C(=O)C12C` (configuration not stated), the MIC [1] is reported as 9.7 µM.
In the case of `CC(=O)c1c(O)c(C)c(O)c2c1OC1=CC(=O)/C(=C(/C)NCc3cn(CC(=O)c4ccc(Cl)c(Cl)c4)nn3)C(=O)C12C` (configuration not stated), the MIC [1] is reported as 40.9 µM.
In the case of `CC(=O)c1c(O)c(C)c(O)c2c1OC1=CC(=O)/C(=C(/C)NCc3cn(CC(=O)c4cccc5ccccc45)nn3)C(=O)C12C` (configuration not stated), the MIC [1] is reported as 42.2 µM.
For `CC(=O)c1c(O)c(C)c(O)c2c1OC1=CC(=O)/C(=C(/C)NCc3cn(CC(=O)N4CCN(c5ccccc5)CC4)nn3)C(=O)C12C` (configuration not stated), the MIC [1] was 39.9 µM.
With `CC(=O)c1c(O)c(C)c(O)c2c1OC1=CC(=O)/C(=C(/C)NCc3cn(CC(=O)c4ccc(-c5ccccc5)cc4)nn3)C(=O)C12C` (configuration not stated) the MIC [1] was 48.2 µM.
Work on `CC(=O)c1c(O)c(C)c(O)c2c1OC1=CC(=O)/C(=C(/C)NCc3cn(CC(=O)c4ccccc4)nn3)C(=O)C12C` (configuration not stated) yielded an MIC [1] of 46.1 µM.
With `CC(=O)c1c(O)c(C)c(O)c2c1OC1=CC(=O)/C(=C(/C)NCc3cn(CC(=O)N4CCN(c5ccc(C(F)(F)F)cc5)CC4)nn3)C(=O)C12C` (configuration not stated) the MIC [1] was 36 µM.
